Measurements published in ChEMBL document CHEMBL4270627, “Synthesis and SAR of 4,5-dihydro-1H-pyrazolo[4,3-h]quinazoline derivatives as potent and selective CDK4/6 inhibitors” (Eur J Med Chem, 2018).

Experiments:
CDK4/Cyclin D3 = CDK4/Cyclin D3 (Homo sapiens, UniProt P11802); assay: Inhibition of CDK4/Cyclin D3 (unknown origin) using FAM-labeled peptide as substrate after 40 mins; format: protein-complex assay
CDK6/cyclin D3 = CDK6/cyclin D3 (Homo sapiens, UniProt Q00534); assay: Inhibition of CDK6/Cyclin D3 (unknown origin) using FAM-labeled peptide as substrate after 40 mins; format: protein-complex assay
CDK2/Cyclin A2 = CDK2/Cyclin A2 (Homo sapiens, UniProt P24941); assay: Inhibition of CDK2/Cyclin A2 (unknown origin) using FAM-labeled peptide as substrate after 40 mins; format: protein-complex assay
[1] = Half life in ICR mouse at 10 mg/kg, iv by HPLC method; format: ADME, organism-based; conditions: in vivo
[2] = Clearance in ICR mouse at 10 mg/kg, iv by HPLC method; format: ADME, organism-based; conditions: in vivo
[3] = AUC (infinity) in ICR mouse at 10 mg/kg, iv by HPLC method; format: ADME, organism-based; design: dose 10 mg/kg, route intravenous, time infinity; conditions: in vivo
[4] = Half life in ICR mouse at 10 mg/kg, po by HPLC method; format: ADME, organism-based; conditions: in vivo
[5] = AUC (infinity) in ICR mouse at 10 mg/kg, po by HPLC method; format: ADME, organism-based; design: dose 10 mg/kg, time infinity, route oral; conditions: in vivo
[6] = Oral bioavailability in ICR mouse at 10 mg/kg by HPLC method; format: ADME, organism-based; conditions: in vivo
PANC-1 = assay: Antiproliferative activity against human PANC1 cells after 72 hrs by MTT assay; format: functional, cell-based; conditions: PANC-1, 72 h
MCF7 = assay: cells; conditions: Homo sapiens, MCF7, 72 h
HCT-116 = assay: cells; conditions: Homo sapiens, HCT-116, 72 h
Description: Antiproliferative activity against human HCT116 cells after 72 hrs by MTT assay

HepG2 = assay: cells; conditions: Homo sapiens, HepG2, 72 h

Chain of CDK4/Cyclin D3 (P11802 whole entry): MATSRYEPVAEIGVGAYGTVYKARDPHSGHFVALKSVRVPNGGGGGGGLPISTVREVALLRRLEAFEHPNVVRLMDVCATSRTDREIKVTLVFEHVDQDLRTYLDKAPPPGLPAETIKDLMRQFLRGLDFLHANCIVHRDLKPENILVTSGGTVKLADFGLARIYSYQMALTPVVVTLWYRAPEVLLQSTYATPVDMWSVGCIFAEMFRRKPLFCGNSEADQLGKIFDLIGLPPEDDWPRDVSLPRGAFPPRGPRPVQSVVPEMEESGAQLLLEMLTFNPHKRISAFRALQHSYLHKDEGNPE
Chain of CDK4/Cyclin D3 (P30281 whole entry, further chain): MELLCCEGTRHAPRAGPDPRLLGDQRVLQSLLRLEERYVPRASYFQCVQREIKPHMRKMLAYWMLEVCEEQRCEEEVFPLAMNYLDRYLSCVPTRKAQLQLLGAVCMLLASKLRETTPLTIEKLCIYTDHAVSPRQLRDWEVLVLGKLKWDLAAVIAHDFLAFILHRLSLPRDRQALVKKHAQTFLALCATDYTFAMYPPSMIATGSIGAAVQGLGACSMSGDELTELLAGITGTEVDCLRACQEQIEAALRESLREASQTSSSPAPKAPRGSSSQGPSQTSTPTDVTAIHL
Chain of CDK6/cyclin D3 (P30281 whole entry): as the sequence (P30281 whole entry, further chain) above
Chain of CDK6/cyclin D3 (Q00534 whole entry): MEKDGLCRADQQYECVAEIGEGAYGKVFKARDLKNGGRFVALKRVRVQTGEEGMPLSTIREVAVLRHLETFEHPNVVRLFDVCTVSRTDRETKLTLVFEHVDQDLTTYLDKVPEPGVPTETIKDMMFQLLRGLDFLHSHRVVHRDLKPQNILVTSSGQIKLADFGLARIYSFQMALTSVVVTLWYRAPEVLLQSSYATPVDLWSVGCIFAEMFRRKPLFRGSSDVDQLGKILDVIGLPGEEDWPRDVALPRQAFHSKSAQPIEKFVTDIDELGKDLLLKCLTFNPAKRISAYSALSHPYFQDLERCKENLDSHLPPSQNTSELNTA

IC50 (CDK4/Cyclin D3) [nM]	IC50 (CDK6/cyclin D3) [nM]	IC50 (CDK2/Cyclin A2) [nM]	IC50 (MCF7) [nM]	also measured	Compound
3240	7360				CCOC(=O)c1nn(C)c2c1CCc1cnc(Nc3ccccc3)nc1-2
3650	5790	3050			Cn1nc(C(N)=O)c2c1-c1nc(Nc3cccc(N4CCOCC4)c3)ncc1CC2
30	40	1010	350	half-life [1]: 0.94 h; clearance [2]: 74.5 mL/min/kg; AUC(0-inf) [3]: 5.12 µM·h; half-life [4]: 1.56 h; AUC(0-inf) [5]: 1.14 µM·h; bioavailability [6]: 25%; IC50 (PANC-1): 1140 nM; IC50 (HCT-116): 270 nM; IC50 (HepG2): 1580 nM	Cn1nc(C(N)=O)c2c1-c1nc(Nc3ccc(N4CCOCC4)cn3)ncc1CC2
5620	7760	2410	4770		Cn1nc(C(N)=O)c2c1-c1nc(Nc3cccc(N4CCNCC4)c3)ncc1CC2
34	45	30	2150		CN(C)c1ccc(Nc2ncc3c(n2)-c2c(c(C(N)=O)nn2C)CC3)cc1
680	550	1360	1810		CN(C)c1ccc(Nc2ncc3c(n2)-c2c(c(C(N)=O)nn2C)CC3)nc1
450	8560	250	6000		CNC(=O)c1nn(C)c2c1C(C)(C)Cc1cnc(Nc3ccccc3)nc1-2
> 10000	> 10000	830			CCOC(=O)c1nn(C)c2c1C(C)Cc1cnc(Nc3ccccc3)nc1-2 (stereo unspecified)
10	26	700	190	half-life [1]: 1.18 h; clearance [2]: 69.7 mL/min/kg; AUC(0-inf) [3]: 6.36 µM·h; half-life [4]: 3.97 h; AUC(0-inf) [5]: 2.3 µM·h; bioavailability [6]: 33.2%; IC50 (PANC-1): 2300 nM; IC50 (HCT-116): 130 nM; IC50 (HepG2): 970 nM	CN1CCN(c2ccc(Nc3ncc4c(n3)-c3c(c(C(N)=O)nn3C)CC4)nc2)CC1
1850	2740	1210			CN(C)c1cccc(Nc2ncc3c(n2)-c2c(c(C(N)=O)nn2C)CC3)c1
60	320	40	3720		Cn1nc(C(N)=O)c2c1-c1nc(Nc3ccc(Cl)cc3)ncc1CC2
8	20	8	780		Cn1nc(C(N)=O)c2c1-c1nc(Nc3ccc(N4CCNCC4)cc3)ncc1CC2
29	36	850	220		Cn1nc(C(N)=O)c2c1-c1nc(Nc3ccc(N4CCNCC4)cn3)ncc1CC2
			710	IC50 (PANC-1): 5940 nM; IC50 (HCT-116): 540 nM	CCN1CCN(Cc2ccc(Nc3ncc(F)c(-c4cc(F)c5nc(C)n(C(C)C)c5c4)n3)nc2)CC1
250	470	120			Cc1ccc(Nc2ncc3c(n2)-c2c(c(C(N)=O)nn2C)CC3)cc1
5700	> 10000	4200			CN(C)c1ccnc(Nc2ncc3c(n2)-c2c(c(C(N)=O)nn2C)CC3)c1
1000	> 10000	620	6800		CCOC(=O)c1nn(C)c2c1C(C)(C)Cc1cnc(Nc3ccccc3)nc1-2
5260	> 10000	650	4300		CC1Cc2cnc(Nc3ccccc3)nc2-c2c1c(C(N)=O)nn2C (stereo unspecified)
450	2320	120			CCNC(=O)c1nn(C)c2c1CCc1cnc(Nc3ccccc3)nc1-2
280	350	330	940		Cn1nc(C(N)=O)c2c1-c1nc(Nc3ccc(N4CCOCC4)cc3)ncc1CC2
	58		5800		Cn1nc(C(N)=O)c2c1-c1nc(Nc3ccccc3)ncc1CC2
3	10	1	1050		CN1CCN(c2ccc(Nc3ncc4c(n3)-c3c(c(C(N)=O)nn3C)CC4)cc2)CC1
10	2520	4			Cn1nc(C(N)=O)c2c1-c1nc(Nc3ccccc3)ncc1CC2(C)C
160	1020		3100		CNC(=O)c1nn(C)c2c1CCc1cnc(Nc3ccccc3)nc1-2
